Literature values as cited in US6399104B1, “Pharmaceutical compositions” (AstraZeneca UK Limited, priority 1997, dated 2002).

Settings: as disclosed in U.S. Pat. No. 5,319,097

bioavailability: good bioavailability
SMILES: COc1cc(C(=O)NS(=O)(=O)c2ccccc2C)ccc1Cc1cn(C)c2ccc(NC(=O)OC3CCCC3)cc12 [Form A, N-[4-[5-(cyclopentyloxycarbonyl)amino-1-methylindol-3-ylmethyl]-3-methoxybenzoyl]-2-methylbenzene]
